Assay results published in patent US20260193271A1, “PAN-KRAS INHIBITOR COMPOUND” (ADLAI NORTYE BIOPHARMA CO., LTD., priority 2022, published 2026).

Tests used:
AsPC-1 (G12D) = test: In vitro cell proliferation inhibition test (CellTiter-Glo), AsPC-1; format: cell-based; conditions: Homo sapiens, ASPC1, AsPC-1 pancreas cell line, KRAS (p.G12D), 72 h co-incubation
Procedure, shortened: (§1)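 Cells were seeded at 1000-5000/well by doubling time and cultured overnight at 37 °C, 5% CO2. They were then exposed for 72 h to 10-point, 3-fold compound dilutions (final top 10 μM), and viability was read by CellTiter-Glo luminescence. IC50 came from normalized signals fitted by four-parameter regression.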

SW480 (G12V) = test: In vitro cell proliferation inhibition test (CellTiter-Glo), SW480; format: cell-based; conditions: Homo sapiens, SW480 colon cell line, KRAS (p.G12V), 72 h co-incubation
Procedure, shortened: as §1

IC50 (AsPC-1 (G12D)) | IC50 (SW480 (G12V)) | SMILES
5.3 nM | 6.2 nM | CCn1c(-c2cc(-c3cnc4c(c3)CN(C)C4)cnc2[C@H](C)OC)c2c3cc(ccc31)-c1csc(n1)C[C@H](NC(=O)[C@H]1C[C@@H]1C)C(=O)N1CCC[C@H](N1)C(=O)OCC(C)(C)C2 (atropisomer, axis not shown) [Compound 45, (1S,2S)-N-((6^3S,4S,Z)-1^1-ethyl-1^2-(2-((S)-1-methoxyethyl)-5-(6-methyl-6,7-dihydro-5H-pyrrolo[3,4-b]pyridin-3-yl)pyridin-3-yl)-10,10-dimethyl-5,7-dioxo-6^1,6^2,6^3,6^4,6^5,6^6-hexahydro-1^1H-8-oxa-2(4,2)-thiazola-1(5,3)-indola-6(1,3)-pyridazinacycloundecaphane-4-yl)-2-methylcyclopropane-1-carboxamide]
0.57 nM | 4.5 nM | CCn1c(-c2cc(-c3cnn(CCN4CCN(C)CC4)c3)cnc2[C@H](C)OC)c2c3cc(ccc31)-c1csc(n1)C[C@H](NC(=O)[C@H]1[C@H](C)[C@@H]1C)C(=O)N1CCC[C@H](N1)C(=O)OCC(C)(C)C2 (atropisomer, axis not shown) [Compound 19, (1r,2R,3S)-N-((6^3S,4S,Z)-1^1-ethyl-1^2-(2-((S)-1-methoxyethyl)-5-(1-(2-(4-methylpiperazin-1-yl)ethyl)-1H-pyrazol-4-yl)pyridin-3-yl)-10,10-dimethyl-5,7-dioxo-6^1,6^2,6^3,6^4,6^5,6^6-hexahydro-1^1H-8-oxa-2(4,2)-thiazola-1(5,3)-indola-6(1,3)-pyridazinacycloundecaphane-4-yl)-2,3-dimethylcyclopropane-1-carboxamide]
3.5 nM | 18 nM | CCn1c(-c2cc(-c3cccc(CN4CCOCC4)c3)cnc2[C@H](C)OC)c2c3cc(ccc31)-c1csc(n1)C[C@H](NC(=O)[C@H]1C[C@@H]1C)C(=O)N1CCC[C@H](N1)C(=O)OCC(C)(C)C2 (atropisomer, axis not shown) [Compound 9, (1S,2S)-N-((6^3S,4S,Z)-1^1-ethyl-1^2-(2-((S)-1-methoxyethyl)-5-(3-(morpholinomethyl)phenyl)pyridin-3-yl)-10,10-dimethyl-5,7-dioxo-6^1,6^2,6^3,6^4,6^5,6^6-hexahydro-1^1H-8-oxa-2(4,2)-thiazola-1(5,3)-indola-6(1,3)-pyridazinacycloundecaphane-4-yl)-2-methylcyclopropane-1-carboxamide]
1.7 nM | 2.8 nM | CCn1c(-c2cc(-c3ncc(CN4CCOCC4)cn3)cnc2[C@H](C)OC)c2c3cc(ccc31)-c1csc(n1)C[C@H](NC(=O)C1C[C@@H]1C)C(=O)N1CCC[C@H](N1)C(=O)OCC(C)(C)C2 (stereo partly drawn) [Compound 14, (1S,2S)-N-((6^3S,4S,Z)-1^1-ethyl-1^2-(2-((S)-1-methoxyethyl)-5-(5-(morpholinomethyl)pyrimidin-2-yl)pyridin-3-yl)-10,10-dimethyl-5,7-dioxo-6^1,6^2,6^3,6^4,6^5,6^6-hexahydro-1^1H-8-oxa-2(4,2)-thiazola-1(5,3)-indola-6(1,3)-pyridazinacycloundecaphane-4-yl)-2-methylcyclopropane-1-carboxamide]
6 nM | 10 nM | CCn1c(-c2cc(-c3ccc(CN4CCOCC4)nc3)cnc2[C@H](C)OC)c2c3cc(ccc31)-c1csc(n1)C[C@H](NC(=O)[C@H]1C[C@@H]1C)C(=O)N1CCC[C@H](N1)C(=O)OCC(C)(C)C2 (atropisomer, axis not shown) [Compound 5, (1S,2S)-N-((6^3S,4S,Z)-1^1-ethyl-1^2-(6-((S)-1-methoxyethyl)-6′-(morpholinomethyl)-[3,3′-bipyridin]-5-yl)-10,10-dimethyl-5,7-dioxo-6^1,6^2,6^3,6^4,6^5,6^6-hexahydro-1^1H-8-oxa-2(4,2)-thiazola-1(5,3)-indola-6(1,3)-pyridazinacycloundecaphane-4-yl)-2-methylcyclopropane-1-carboxamide]
11 nM | 10 nM | CCn1c(-c2cc(-c3cc(CN4CCOCC4)on3)cnc2[C@H](C)OC)c2c3cc(ccc31)-c1csc(n1)C[C@H](NC(=O)[C@H]1C[C@@H]1C)C(=O)N1CCC[C@H](N1)C(=O)OCC(C)(C)C2 (atropisomer, axis not shown) [Compound 22, (1S,2S)-N-((6^3S,4S,Z)-1^1-ethyl-1^2-(2-((S)-1-methoxyethyl)-5-(5-(morpholinomethyl)isoxazol-3-yl)pyridin-3-yl)-10,10-dimethyl-5,7-dioxo-6^1,6^2,6^3,6^4,6^5,6^6-hexahydro-1^1H-8-oxa-2(4,2)-thiazola-1(5,3)-indola-6(1,3)-pyridazinacycloundecaphane-4-yl)-2-methylcyclopropane-1-carboxamide]
1.1 nM | 1.8 nM | CCn1c(-c2cc(-c3cc([C@@H]4CN(C)CCO4)on3)cnc2[C@H](C)OC)c2c3cc(ccc31)-c1csc(n1)C[C@H](NC(=O)[C@H]1[C@H](C)[C@@H]1C)C(=O)N1CCC[C@H](N1)C(=O)OCC(C)(C)C2 (atropisomer, axis not shown) [Compound 27, (1r,2R,3S)-N-((6^3S,4S,Z)-1^1-ethyl-1^2-(2-((S)-1-methoxyethyl)-5-(5-((S)-4-methylmorpholin-2-yl)isoxazol-3-yl)pyridin-3-yl)-10,10-dimethyl-5,7-dioxo-6^1,6^2,6^3,6^4,6^5,6^6-hexahydro-1^1H-8-oxa-2(4,2)-thiazola-1(5,3)-indola-6(1,3)-pyridazinacycloundecaphane-4-yl)-2,3-dimethylcyclopropane-1-carboxamide]
5.6 nM | 4.6 nM | CCn1c(-c2cc(-c3cnc(OC)nc3)cnc2[C@H](C)OC)c2c3cc(ccc31)-c1csc(n1)C[C@H](NC(=O)[C@H]1C[C@@H]1C)C(=O)N1CCC[C@H](N1)C(=O)OCC(C)(C)C2 (atropisomer, axis not shown) [Compound 57, (1S,2S)-N-((6^3S,4S,Z)-1^1-ethyl-1^2-(2-((S)-1-methoxyethyl)-5-(2-methoxypyrimidin-5-yl)pyridin-3-yl)-10,10-dimethyl-5,7-dioxo-6^1,6^2,6^3,6^4,6^5,6^6-hexahydro-1H-8-oxa-2(4,2)-thiazola-1(5,3)-indola-6(1,3)-pyridazinacycloundecaphane-4-yl)-2-methylcyclopropane-1-carboxamide]
11 nM | 15 nM | CCn1c(-c2cc(-c3nc(C)no3)cnc2[C@H](C)OC)c2c3cc(ccc31)-c1csc(n1)C[C@H](NC(=O)[C@H]1C[C@@H]1C)C(=O)N1CCC[C@H](N1)C(=O)OCC(C)(C)C2 (atropisomer, axis not shown) [Compound 21, (1S,2S)-N-((6^3S,4S,Z)-1^1-ethyl-1^2-(2-((S)-1-methoxyethyl)-5-(3-methyl-1,2,4-oxadiazol-5-yl)pyridin-3-yl)-10,10-dimethyl-5,7-dioxo-6^1,6^2,6^3,6^4,6^5,6^6-hexahydro-1^1H-8-oxa-2(4,2)-thiazola-1(5,3)-indola-6(1,3)-pyridazinacycloundecaphane-4-yl)-2-methylcyclopropane-1-carboxamide]
12 nM | 150 nM | CCn1c(-c2cc(-c3cn(CC4CCN(C)CC4)nn3)cnc2C(C)OC)c2c3cc(ccc31)-c1csc(n1)C[C@H](NC(=O)[C@H]1C[C@@H]1C)C(=O)N1CCC[C@H](N1)C(=O)OCC(C)(C)C2 (stereo partly drawn) [Compound 65, (1S,2S)-N-((6^3S,4S,Z)-1^1-ethyl-1^2-(2-((S)-1-methoxyethyl)-5-(1-((1-methylpiperidin-4-yl)methyl)-1H-1,2,3-triazol-4-yl)pyridin-3-yl)-10,10-dimethyl-5,7-dioxo-6^1,6^2,6^3,6^4,6^5,6^6-hexahydro-1^1H-8-oxa-2(4,2)-thiazola-1(5,3)-indola-6(1,3)-pyridazinacycloundecaphane-4-yl)-2-methylcyclopropane-1-carboxamide]
66 nM | 23 nM | CCn1c(-c2cc(-c3cnc(CN4CCS(=O)(=O)CC4)nc3)cnc2[C@H](C)OC)c2c3cc(ccc31)-c1csc(n1)C[C@H](NC(=O)[C@H]1C[C@@H]1C)C(=O)N1CCC[C@H](N1)C(=O)OCC(C)(C)C2 (atropisomer, axis not shown) [Compound 38, (1S,2S)-N-((6^3S,4S,Z)-1^2-(5-(2-((1,1-dioxidothiomorpholino)methyl)pyrimidin-5-yl)-2-((S)-1-methoxyethyl)pyridin-3-yl)-1^1-ethyl-10,10-dimethyl-5,7-dioxo-6^1,6^2,6^3,6^4,6^5,6^6-hexahydro-1^1H-8-oxa-2(4,2)-thiazola-1(5,3)-indola-6(1,3)-pyridazinacycloundecaphane-4-yl)-2-methylcyclopropane-1-carboxamide]
6.8 nM | 15 nM | CCn1c(-c2cc(-c3cnc(CN4CCCCC4)nc3)cnc2[C@H](C)OC)c2c3cc(ccc31)-c1csc(n1)C[C@H](NC(=O)[C@H]1C[C@@H]1C)C(=O)N1CCC[C@H](N1)C(=O)OCC(C)(C)C2 (atropisomer, axis not shown) [Compound 55, (1S,2S)-N-((6^3S,4S,Z)-1^1-ethyl-1^2-(2-((S)-1-methoxyethyl)-5-(2-(piperidin-1-ylmethyl)pyrimidin-5-yl)pyridin-3-yl)-10,10-dimethyl-5,7-dioxo-6^1,6^2,6^3,6^4,6^5,6^6-hexahydro-1^1H-8-oxa-2(4,2)-thiazola-1(5,3)-indola-6(1,3)-pyridazinacycloundecaphane-4-yl)-2-methylcyclopropane-1-carboxamide]
3.2 nM | 10 nM | CCn1c(-c2cc(-c3cc([C@@H]4CCN(C)C4)on3)cnc2[C@H](C)OC)c2c3cc(ccc31)-c1csc(n1)C[C@H](NC(=O)[C@H]1[C@H](C)[C@@H]1C)C(=O)N1CCC[C@H](N1)C(=O)OCC(C)(C)C2 (atropisomer, axis not shown) [Compound 29, (1r,2R,3S)-N-((6^3S,4S,Z)-1^1-ethyl-1^2-(2-((S)-1-methoxyethyl)-5-(5-((R)-1-methylpyrrolidin-3-yl)isoxazol-3-yl)pyridin-3-yl)-10,10-dimethyl-5,7-dioxo-6^1,6^2,6^3,6^4,6^5,6^6-hexahydro-1^1H-8-oxa-2(4,2)-thiazola-1(5,3)-indola-6(1,3)-pyridazinacycloundecaphane-4-yl)-2,3-dimethylcyclopropane-1-carboxamide]
